Data on six molecules can be found in patent publication US6613757B1, “COMBINATION OF PROSTACYCLIN WITH AN ESTROGEN OR PROGESTIN FOR THE PREVENTION AND TREATMENT OF ATHEROSCLEROTIC VASCULAR DISEASE INCLUDING PREECLAMPSIA AND FOR THE TREATMENT OF HYPERTENSION, AND FOR HORMONE REPLACEMENT THERAPY” (Board of Regents, The University of Texas System, priority 1994, dated 2003).

“Also recorded” adds a separate entry of the source.

Data set [1] concerns preeclamptic rats (L-NAME). Briefly: Blood pressure in L-NAME-induced preeclampsia model, pregnant and postpartum rats. In kind it is in vivo, rat. To be noted: for post-partum increase in blood pressure: R 5020 5 mg/animal/day; for blood pressure in the postpartum period: preeclamptic rats, L-NAME 25 mg/animal/day s.c. infusion plus cicaprost. How it is done:
These symptoms are related to the decrease in vascular resistance and placental perfusion. […] Preeclampsia was induced with an nitric oxide inhibitor L-NAME (25 mg/animal/day, s.c. infusion).

A further data set concerns L-NAME-treated male rats. In words: L-NAME-induced hypertension in male rats. In kind it is in vivo, rat. As for the experimental part: (§1) FIG. 2 provides further evidence that progesterone can induce mechanisms which compensate the L-NAME-produced hypertension. This study was performed in male rats, showing pregnancy is not essential for this effect.
A further data set has as its system placental blood vessels. To be noted: in vitro; cited from earlier work.
In the next data set the test system is sheep. To be noted: infusion; cited from earlier work.
The next data set has as its system humans. As to conditions: infusion; cited from earlier work.
Data set [2] relates to women with severe preeclampsia. As to conditions: cited from earlier work.
For data set [3], the system named is cases of severe early-onset fetal growth retardation. To be noted: 2 cases, intravenous, 4 ng/kg/min; cited from earlier work.
The conditions of data set [4]: in vivo; cited from earlier work.
For data set [5] the following is noted: intravenous use; cited from earlier work.
In the next data set the test system is pregnant guinea pigs. Briefly: Inhibition of nitric oxide synthesis during pregnancy in guinea pigs. To be noted: unreported studies. In kind it is in vivo, guinea pig. The text has this: There is also evidence that prostacyclin production is decreased in preeclampsia. In a normal pregnancy there is an approximately 5-10-fold increase in prostacyclin production compared to the non-pregnant state (Goodman 1982, Walsh 1985, Fitzgerald 1,987). In contrast, there is a decreased production of prostacyclin in maternal, placental and umbilical cord vessels and in placental cotyledons (Remuzzi 1980, […] 1984, Walsh 1985) in preeclampsia. An imbalance in the ratio of thromboxane A2 to prostacyclin in preeclampsia has been proposed as a major pathological mechanism in preeclampsia (Walsh 1988, Fitzgerald 1987, Friedman 1988). Other experimental studies (unreported) in pregnant rats and guinea pigs indicate that nitric oxide deficiency is the primary event in preeclampsia.

For data set [6], the system named is preeclamptic rats (L-NAME). In words: Fetal weight and fetal mortality in L-NAME-treated pregnant rats. In kind it is in vivo, rat. As to conditions: iloprost plus L-NAME vs L-NAME-treated group.
Description: The unexpected results of the studies described below indicate that the response of blood vessels to prostacyclins and subsequent blood pressure lowering effect is controlled by progesterone. […] These symptoms are related to the decrease in vascular resistance and placental perfusion. […] Thus, the condition of pregnancy and the progestin treatment highly increase the responsiveness of blood vessels to exogenous prostacyclin. The increased response of blood vessels results in the lowering of the effective dose of prostacyclin analogs and subsequently in the reduction of side effects.
as §1

The subject of data set [7] is microvascular arteriolar endothelium. To be noted: cited from earlier work.
The subject of the next data set is cholesterol-fed rabbits. As to conditions: cited from earlier work.

Consider `CCC(=O)[C@@]1(C)CC[C@H]2[C@@H]3CCC4=CC(=O)CCC4=C3CC[C@@]21C` [R 5020, promegestone], for which the “post-partum increase in blood pressure” value is reported as “dramatically decrease the post-partum increase in blood pressure” in data set [1] (iloprost plus L-NAME, FIG. 4) and “restores the efficacy of iloprost/cicaprost to lower blood pressure” in [1] (iloprost plus L-NAME, FIG. 4, listed as R5020). Also, the “blood pressure in the postpartum period” value is given as “lowers blood pressure; also recorded: restores the postpartum decrease in the efficacy of cicaprost to lower blood pressure” in data set [1] (FIG. 1) and “restores the efficacy of iloprost/cicaprost to lower blood pressure” in [1] (FIG. 1, listed as R5020). Further, the L-NAME-induced hypertension entry in the data set on L-NAME-treated male rats (male rats, 0.5 mg/animal/day s.c., FIG. 2) is recorded as “reduces the L-NAME-induced hypertension”.

As for `CCCCC[C@H](O)/C=C/[C@@H]1[C@H]2C/C(=C/CCCC(=O)O)O[C@H]2C[C@H]1O` [prostacyclin], the “relaxation of placental blood vessels” value in the data set on placental blood vessels is “consistently relaxes placental blood vessels”. Besides, the placental perfusion entry in the data set on sheep is on record as “did not result in the increase in placental perfusion; also recorded: a decrease of placental perfusion”. The placental perfusion result with humans is “did not result in the increase in placental perfusion”. Moreover, in data set [2] (7 women, 4-8 ng/kg/min i.v.), the babies survived is listed as 4/7 and the “fetal effects during treatment” value is “Fetal bradycardia was observed; also recorded: two fetuses died during prostacyclin infusion”. In data set [2] (7 women, 4-8 ng/kg/min, 5 h to 11 days), the “blood pressure during prostacyclin infusion” value is on record as “rapid decrease in blood pressure”. The uteroplacental blood flow result in [2] (steal phenomenon) is on record as “decreased uteroplacental blood flow”. Moreover, the “outcome of attempt to promote fetal growth” value in data set [3] is “intrauterine death in each case”. The duration of action result in [4] is “short duration of action”. For the same molecule, the systemic blood pressure entry in data set [5] is on record as “marked fall in systemic blood pressure”.

In the case of `COC(=O)[C@@H](N)CCCNC(=N)N[N+](=O)[O-]` [L-NAME], the “signs and symptoms of preeclampsia (hypertension, proteinuria, fetal growth retardation)” value in [1] (pregnant rats) is “caused the classical symptoms hypertension, proteinuria and fetal growth retardation; also recorded: produces signs and symptoms of preeclampsia”. For the same molecule, in the data set with pregnant guinea pigs, the “classical symptoms hypertension, proteinuria and fetal growth retardation” value was “caused the classical symptoms hypertension, proteinuria and fetal growth retardation”.

In the case of `CC(=O)[C@H]1CC[C@H]2[C@@H]3CCC4=CC(=O)CC[C@]4(C)[C@H]3CC[C@]12C` [progesterone], in the data set with L-NAME-treated male rats (L-NAME-treated male rats), the blood pressure entry is reported as “partially lowers blood pressure”.

As for `CC#CCC(C)[C@H](O)/C=C/[C@@H]1[C@H]2C/C(=C/CCCC(=O)O)C[C@H]2C[C@H]1O` (stereo partly shown) [iloprost], the “L-NAME-induced hypertension during pregnancy” value in data set [1] (iloprost plus L-NAME, progesterone levels high, FIG. 4) is given as “greater in late pregnancy; also recorded: fully reverses the L-NAME-induced hypertension”. In addition, the L-NAME-induced fetal mortality entry in [6] (FIG. 5 lower panel) was “reduces the L-NAME-induced fetal mortality; also recorded: fetal mortality decreased”. Also, the “L-NAME-induced fetal growth retardation (fetal weight)” value in data set [6] (FIG. 5 upper panel) is listed as “partially reverses the L-NAME-induced fetal growth retardation; also recorded: fetal weight increased”. The “damage of microvascular arteriolar endothelium by cyclosporin” value in [7] was “protect microvascular arteriolar endothelium from damage by cyclosporin”. Further, in [5], the systemic blood pressure result is reported as “marked fall in systemic blood pressure”.

Take `CCC#CC[C@H](C)[C@H](O)C#C[C@@H]1[C@H]2C/C(=C/COCC(=O)O)C[C@H]2C[C@H]1O` [cicaprost]: the “blood pressure during pregnancy (prepartum)” value in data set [1] (cicaprost plus L-NAME, progesterone levels high, FIG. 1) is given as “greater in late pregnancy; also recorded: a fall in blood pressure”. The blood pressure postpartum result in data set [1] (cicaprost plus L-NAME, progesterone levels low, FIG. 1) is given as “rapid increase in blood pressure; also recorded: an increase”. Further, in the data set with cholesterol-fed rabbits (oral, cholesterol-fed rabbits), the “aortic atheromatous plaque formation” value was “reduced aortic atheromatous plaque formation” and the “hypercholesterolemia-induced impairment of endothelium-dependent relaxation” value was “partially prevented hypercholesterolemia-induced impairment of endothelium-dependent relaxation”. Moreover, the “hypercholesterolemia-induced impairment of coronary vasodilatation” value with cholesterol-fed rabbits (oral, rabbits) is reported as “beneficial effect on the hypercholesterolemia-induced impairment of coronary vasodilatation”. The “hypercholesterolemia-induced platelet and neutrophil hyperactivity” value in the data set with cholesterol-fed rabbits (rabbits) was “reduced hypercholesterolemia-induced platelet and neutrophil hyperactivity”. In addition, in data set [4], the bioavailability result is given as “high bioavailability” and the duration of action entry is “prolonged duration of action”.
